System: lactating Holstein cows in sub-clinical ketosis
Assay: Change of daily milk production after a single intravenous injection in lactating Holstein cows with sub-clinical ketosis
Assay type: in vivo
Description: Ten lactating Holstein cows in the immediate post-partum period of which milk production was 10-15% decreased in comparison with that of one week before the beginning of test due to sub-clinical ketosis were used. All cows were supplied with a complete feed for lactating cows composed of corn silage and concentrate containing grains, oil meals, animal proteins and vitamins/minerals. On the first day in the test, a solution containing 29 g of L-glutamine dissolved in 1 liter of distilled water for injection was injected into the cows through the cervical vein. The cows were then milked twice a day for one month, and the milk amount was measured. Ten lactating Holstein cows in sub-clinical ketosis were selected as negative controls according to the same criterion as in Example. On the first day in the test, 1 liter of saline was injected through the cervical vein as the negative control. On the other hand, nine lactating Holstein cows selected according to the same criterion as described above were used. On the first day in the test, 1 liter of a 25% dextrose solution was injected through the cervical vein as the positive control. Both the negative and positive controls were then supplied with the same complete feed as used in Example. The cows were then milked twice a day for one month, and the milk amount was measured. […] The X-axis indicates days after administration, and the Y-axis indicates the increment of the milk amount from that on the first day of the test. […] The increase of the milk amount was about 12 kg per day at maximum. […] Thus, the present invention can provide a novel method which is inexpensive and safe for preventing decrease of milk amount in mammals.

## NC(=O)CC[C@H](N)C(=O)O [glutamine, L-glutamine]
Single injection through the cervical vein on the first day (29 g L-glutamine in 1 liter, or 1 liter of 25% dextrose solution), milked twice a day for one month
  milk amount increase on the average, from that on the first day of the test: 7.6 kg per day
Single injection through the cervical vein on the first day (29 g L-glutamine in 1 liter, or 1 liter of 25% dextrose solution), milked twice a day for one month, FIG. 1
  increase of the milk amount at maximum, from that on the first day of the test: about 12 kg per day
Single injection through the cervical vein on the first day, followed for one month, FIG. 1
  course of the change of the milk amount after administration: increased immediately after administration, and this tendency lasted even one month after administration
